In BindingDB's records for doi:10.7270/Q29885F3 (Nmmlsc, 2009):

Biological target: Ras-related protein Rab-7a (Canis lupus familiaris, UniProt P18067)
Assay: analogs blocking nucleotide binding to wildtype Rab7 – biochemical, oxadiazole analogs, multiplex bead flow cytometry, SAR follow-up (AID 2031)
Settings: inactive by the depositor's call

Ras-related protein Rab-7a, sequence (P18067 whole entry): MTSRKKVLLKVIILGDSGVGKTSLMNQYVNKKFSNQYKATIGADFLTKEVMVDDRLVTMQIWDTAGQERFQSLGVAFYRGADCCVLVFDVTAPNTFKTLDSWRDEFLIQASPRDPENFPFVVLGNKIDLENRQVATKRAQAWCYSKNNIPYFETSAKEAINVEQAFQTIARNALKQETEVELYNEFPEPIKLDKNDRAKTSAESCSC

| Ki | Structure (SMILES) |
| --- | --- |
| 100 nM | COc1ccc(-c2noc(CCC(=O)N3CCN(c4cccc(C)c4C)CC3)n2)cc1 [1-[4-(2,3-dimethylphenyl)-1-piperazinyl]-3-[3-(4-methoxyphenyl)-1,2,4-oxadiazol-5-yl]-1-propanone] |
| 100 nM | Cc1ccc(C)c(N2CCN(C(=O)CCc3nc(-c4ccc(Br)cc4)no3)CC2)c1 [UNM-0000306072] |
